Tests used:
[1] = tested on: male broiler chickens (Ross 708); experiment: First study: growth performance and carcass evaluation in broilers fed HPKFAD or LA
[2] = tested on: male broiler chickens (Ross 708); conditions: in vivo
[3] = tested on: grow-finish pigs; experiment: Fifth study: growth performance of grow-finish pigs fed HLAD, LA or BMD; conditions: P<0.05
[4] = tested on: pigs (initial BW of 9.98 lbs); experiment: Fourth study: nursery pig challenge model (dirty room) with LAD, Mecadox, calsporin; type: in vivo; conditions: severely challenged pigs; d 0 to 40
Protocol: A total of 96 pigs (initial BW of 9.98 lbs) were allotted to one of 8 treatments (12 replicates per treatment with 1 pigs per replicate). The treatments were 1) a negative control (NC) diet with no antibiotic (Ab), 2) a control diet with an Ab (Mecadox), 3) a diet with LAD at 0.25%, 4) a diet with LAD at 0.5%, 5) a diet with LAD at 1%, 6) a diet with calsporin, 7) a diet with calsporin and LAD at 1%, 8) and a diet with calsporin and LAD at 0.5%. Feed intakes and body weights were determined at the end of each feeding phase. […] Also, ZnO and CuSO4 were not added into the diet to enhance the challenge. The feeding phases were from d 0 to […], d 11 to 20, d 20 to 40. The data, especially from Phase 1 and 2, illustrated the pigs were severely challenged in this trial, which enhanced the effect of the antibiotic. […] The optimum level of LAD was 0.25% for the early growth period and increased to 0.50% for the later growth period. Accordingly, the recommended level of HLAD to be fed to nursery pigs is between 0.25% and 0.5%.

[5] = tested on: broilers challenged with coccidia and Clostridia perfringens; type: in vivo
[6] = tested on: broilers challenged with coccidian vaccine and Clostridium Perfringens; type: in vivo; conditions: versus negative control; throughout the study
[7] = tested on: broilers challenged with coccidian vaccine and Clostridium Perfringens; type: in vivo; conditions: diets that contained papain relative to any other diet; P<0.05

CCCCCCCCCCCC(=O)O [LA, lauric acid] was tested, and the “overall ADFI” value ([1]; LA 0.1% versus negative control, P=0.166) was “numerically lower but not statistically significant”, the “overall ADG” value ([1]; LA included at 0.2 and 0.4%, P 0.038) was “decline in overall ADG” and the “breast and leg yield” value ([1]; LA treatments) was “did not so such an increase”. The “overall feed efficiency, dose response” value ([1]; across inclusion levels, P<0.001) was “significant linear and plateau responses”, the “overall ADFI” value ([1]; all non-zero LA treatments except 0.1% versus negative control) was “decrease” and the “overall ADFI” value ([1]; all non-zero treatments versus negative control, P 0.045) was “decrease”. For the same molecule, the overall feed efficiency ([1]; included at 0.4 and 0.8% compared to negative control, P>0.016 as printed) was “improved”, the “Average Hot Carcass Weight” value ([1]; non-zero treatments versus control, P≧0.111) was “no differences” and the “Average Breast Weight” value ([1]; non-zero treatments versus control, P≧0.236) was “no treatment differences”. For the same molecule, the “Average Leg Weight” value ([1]; non-zero treatments versus control, P≧0.267) was “no treatment differences”, the “Percent Leg Yield” value ([1]; other HPKFAD and LA treatment comparisons, P≧0.195) was “No other treatment differences” and the “Percent Breast Yield” value ([1]; other HPKFAD and LA treatment comparisons, P≧0.404) was “No other treatment differences”. The “Removed Animals (Adverse Event), overall proportion of animals removed” value [2] was “no differences” and the “ADFI, Phase 3” value ([3]; LA at 0.1% relative to control diet or HLAD at 0.4%) was “decreased”.

In the case of COC(=O)N/N=C/c1c[n+]([O-])c2ccccc2[n+]1[O-] [Mecadox], the “performance (feed intakes and body weights)” value [4] is reported as “improved performance”.

bacitracin methylene disalicylate [BMD] was tested, and the “Feed efficiency, Phase 2” value ([3]; antibiotic relative to LA at 0.1% or HLAD at 0.4%) was “increased”, the performance ([5]; BMD) was “only tended to improve performance” and the “feed intake, day 7” value ([5]; BMD relative to any other dietary treatment, P<0.05) was “higher”. The performance [6] was “tended to have improved performance”.

B1: papain: protease fed alone and in combination with hydrolyzed lauric acid (protein, UniProt P00784 134-345, looked up)
Papain: IPEYVDWRQKGAVTPVKNQGSCGSCWAFSAVVTIEGIIKIRTGNLNEYSEQELLDCDRRSYGCNGGYPWSALQLVAQYGIHYRNTYPYEGVQRYCRSREKGPYAAKTDGVRQVQPYNEGALLYSIANQPVSVVLEAAGKDFQLYRGGIFVGPCGNKVDHAVAAVGYGPNYILIKNSWGTGWGENGYIRIKRGTGNSYGVCGLYTSSFYPVKN
B1 was tested, and the ADG [7] was “decreased” and the Feed intake [7] was “decreased”.
